Drawing on PubChem BioAssay (NCI), this text covers GI50 and TGI for 15 compounds.

The structures appear in SMILES notation.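 All cell lines were grown in 96-well plates and treated with compound for 48 hours. Here, GI50 denotes the concentration required for 50% inhibition of growth. Definition used: TGI = concentration required for complete inhibition of growth.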 Some results are limits rather than exact numbers.

The first assay deals with NCI-H522 lung. The assay is described as follows: inhibition of tumour cell growth, NCI panel, 48 h.
With `COc1cc2c3c(n(C)c(=O)c2cc1OC)-c1cc2c(cc1/C3=C\CCCN)OCO2`, the GI50 was 0.61 µM and the TGI is 23.4 µM.
`Cc1ccc(S(=O)(=O)Nc2ccccc2C(=O)c2ccc(C)c(C)c2)cc1` showed a TGI of over 100 µM.
For `COc1ccc(-c2nnc(COc3ccc(NC(=O)Nc4cc(C(F)(F)F)cc(C(F)(F)F)c4)cc3F)o2)cc1`, the GI50 was 2.15 µM and the TGI worked out at 5.35 µM.
As for `COC1=CC(=O)C(C2CC(=O)c3c(O)cc(O)cc3O2)=CC1=O` (stereo not given), the TGI was found to be 30.8 µM.
For the compound `COc1cc(/C=C/c2cc(O)c(C(C)=O)c(O)c2)cc2c1O[C@]1(C)CC[C@@H](O)C(C)(C)[C@H]1C2`, the GI50 is 17.3 µM and the TGI turned out to be 54 µM.
For the compound `CC(C)C(C)/C=C\C(C)C1CCC2C3=CC=C4CC(O)CCC4(C)C3CCC21C` (stereo not given), the TGI was over 100 µM.
As to `Cc1cc2c(cc1Cl)SC(N(N(C)C)S(=O)(=O)c1ccc(Cl)cc1)=NS2(=O)=O`, the GI50 was 11.1 µM and the TGI stood at 43.9 µM.
For `Nc1ncnc2n[nH]c(Nc3ccc(F)cc3)c12`, in that order: 29.8 µM and over 100 µM.
On to `OC(c1nc2ccccc2[nH]1)C(O)C(O)C(O)c1nc2ccccc2[nH]1` (stereo not given), for which the TGI was over 100 µM.
Still for that read-out and setting: in the case of `CCOC(=O)c1cc2nc3ccccc3c(=O)n2c2ccccc12` it was over 10 µM; in that of `Cc1cc(O)c(/C=N/C(=S)NCc2ccccc2)c(=O)o1`, over 100 µM; in that of `C[Si](C)(C)C1(Sc2ccccc2)SCCCS1`, 68.6 µM.
As for `Cc1cc(I)cc(CN(C)CCCN2CCCCC2)c1O`, the GI50 is 16.7 µM and the TGI is 31.4 µM.
As for `CC(C)(C)OC(=O)N[C@H]1CC2(C=C(Cl)C(=O)C(Cl)=C2)OC1=O`, the TGI was determined as 7.18 µM.
Regarding `COc1cc2c3c(n(C)c(=O)c2cc1OC)-c1cc2c(cc1/C3=C\CCN)OCO2`, the GI50 was 0.851 µM and the TGI was over 100 µM.

A further assay deals with HCT-15 colon. The experiment in a line: inhibition of tumour cell growth, NCI panel, 48 h.
With `COc1cc2c3c(n(C)c(=O)c2cc1OC)-c1cc2c(cc1/C3=C\CCCN)OCO2`, the GI50 is 3.18 µM and the TGI came to 15.5 µM.
Regarding `Cc1ccc(S(=O)(=O)Nc2ccccc2C(=O)c2ccc(C)c(C)c2)cc1`, the TGI was over 100 µM.
Turning to `COc1ccc(-c2nnc(COc3ccc(NC(=O)Nc4cc(C(F)(F)F)cc(C(F)(F)F)c4)cc3F)o2)cc1`, the GI50 was 2.01 µM and the TGI stood at 6.06 µM.
Compound `COC1=CC(=O)C(C2CC(=O)c3c(O)cc(O)cc3O2)=CC1=O` (stereo not given) returned a TGI of 55.3 µM.
With `COc1cc(/C=C/c2cc(O)c(C(C)=O)c(O)c2)cc2c1O[C@]1(C)CC[C@@H](O)C(C)(C)[C@H]1C2`, the GI50 was 4.68 µM and the TGI came to 35.7 µM.
For the compound `CC(C)C(C)/C=C\C(C)C1CCC2C3=CC=C4CC(O)CCC4(C)C3CCC21C` (stereo not given), the TGI is over 71.3 µM.
Consider `Cc1cc2c(cc1Cl)SC(N(N(C)C)S(=O)(=O)c1ccc(Cl)cc1)=NS2(=O)=O`, for which the GI50 was 25.9 µM and the TGI was over 100 µM.
The matching figures for `Nc1ncnc2n[nH]c(Nc3ccc(F)cc3)c12`: 8.6 µM and over 100 µM.
On to `OC(c1nc2ccccc2[nH]1)C(O)C(O)C(O)c1nc2ccccc2[nH]1` (stereo not given), for which the TGI is over 100 µM.
Turning to `CCOC(=O)c1cc2nc3ccccc3c(=O)n2c2ccccc12`, the TGI is over 10 µM.
Still for that read-out and setting: with `Cc1cc(O)c(/C=N/C(=S)NCc2ccccc2)c(=O)o1` the figure was over 100 µM; with `C[Si](C)(C)C1(Sc2ccccc2)SCCCS1`, over 100 µM.
`Cc1cc(I)cc(CN(C)CCCN2CCCCC2)c1O`: the GI50 is 10.3 µM and the TGI is 30.7 µM.
Compound `CC(C)(C)OC(=O)N[C@H]1CC2(C=C(Cl)C(=O)C(Cl)=C2)OC1=O` yielded a TGI of 34.9 µM.
As to `COc1cc2c3c(n(C)c(=O)c2cc1OC)-c1cc2c(cc1/C3=C\CCN)OCO2`, the GI50 was 0.679 µM and the TGI stood at 12.8 µM.

The next assay has as its system A498 renal. The assay is described as follows: inhibition of tumour cell growth, NCI panel, 48 h.
With `COc1cc2c3c(n(C)c(=O)c2cc1OC)-c1cc2c(cc1/C3=C\CCCN)OCO2`, the GI50 is 2.49 µM and the TGI worked out at 18.2 µM.
In the case of `Cc1ccc(S(=O)(=O)Nc2ccccc2C(=O)c2ccc(C)c(C)c2)cc1`, the TGI is over 100 µM.
In the case of `COc1ccc(-c2nnc(COc3ccc(NC(=O)Nc4cc(C(F)(F)F)cc(C(F)(F)F)c4)cc3F)o2)cc1`, the GI50 was 1.56 µM and the TGI was 5.03 µM.
For `COC1=CC(=O)C(C2CC(=O)c3c(O)cc(O)cc3O2)=CC1=O` (stereo not given), the TGI was over 58 µM.
For the compound `COc1cc(/C=C/c2cc(O)c(C(C)=O)c(O)c2)cc2c1O[C@]1(C)CC[C@@H](O)C(C)(C)[C@H]1C2`, the GI50 is 4.78 µM and the TGI amounted to 48.3 µM.
`CC(C)C(C)/C=C\C(C)C1CCC2C3=CC=C4CC(O)CCC4(C)C3CCC21C` (stereo not given) returned a TGI of over 100 µM.
Regarding `Cc1cc2c(cc1Cl)SC(N(N(C)C)S(=O)(=O)c1ccc(Cl)cc1)=NS2(=O)=O`, the GI50 is 15.8 µM and the TGI was 37.6 µM.
For `Nc1ncnc2n[nH]c(Nc3ccc(F)cc3)c12`, in that order: 8.33 µM and 92.8 µM.
`OC(c1nc2ccccc2[nH]1)C(O)C(O)C(O)c1nc2ccccc2[nH]1` (stereo not given) displayed a TGI of over 100 µM.
The same measure, in the same setting: with `CCOC(=O)c1cc2nc3ccccc3c(=O)n2c2ccccc12` the figure was over 10 µM.
The same measure, in the same setting: in the case of `Cc1cc(O)c(/C=N/C(=S)NCc2ccccc2)c(=O)o1` it was over 100 µM; in that of `C[Si](C)(C)C1(Sc2ccccc2)SCCCS1`, over 100 µM.
Regarding `Cc1cc(I)cc(CN(C)CCCN2CCCCC2)c1O`, the GI50 was 19.8 µM and the TGI was found to be 38.3 µM.
For `CC(C)(C)OC(=O)N[C@H]1CC2(C=C(Cl)C(=O)C(Cl)=C2)OC1=O`, the TGI is over 9.94 µM.
As for `COc1cc2c3c(n(C)c(=O)c2cc1OC)-c1cc2c(cc1/C3=C\CCN)OCO2`, the GI50 is 11.4 µM and the TGI worked out at 27.7 µM.

Another assay relates to SK-MEL-28 melanoma. The assay is described as follows: inhibition of tumour cell growth, NCI panel, 48 h.
On to `COc1cc2c3c(n(C)c(=O)c2cc1OC)-c1cc2c(cc1/C3=C\CCCN)OCO2`, for which the GI50 is 18.8 µM and the TGI is over 100 µM.
In the case of `Cc1ccc(S(=O)(=O)Nc2ccccc2C(=O)c2ccc(C)c(C)c2)cc1`, the TGI was over 100 µM.
Take `COc1ccc(-c2nnc(COc3ccc(NC(=O)Nc4cc(C(F)(F)F)cc(C(F)(F)F)c4)cc3F)o2)cc1`: the GI50 is 2.4 µM and the TGI was 6.85 µM.
Take `COC1=CC(=O)C(C2CC(=O)c3c(O)cc(O)cc3O2)=CC1=O` (stereo not given): the TGI came to 31.4 µM.
For the compound `COc1cc(/C=C/c2cc(O)c(C(C)=O)c(O)c2)cc2c1O[C@]1(C)CC[C@@H](O)C(C)(C)[C@H]1C2`, the GI50 is 4.17 µM and the TGI stood at 26.2 µM.
Take `CC(C)C(C)/C=C\C(C)C1CCC2C3=CC=C4CC(O)CCC4(C)C3CCC21C` (stereo not given): the TGI was over 60.5 µM.
Consider `Cc1cc2c(cc1Cl)SC(N(N(C)C)S(=O)(=O)c1ccc(Cl)cc1)=NS2(=O)=O`, for which the GI50 was 29.1 µM and the TGI was over 100 µM.
The matching figures for `Nc1ncnc2n[nH]c(Nc3ccc(F)cc3)c12`: 24.1 µM and 88.4 µM.
For the compound `OC(c1nc2ccccc2[nH]1)C(O)C(O)C(O)c1nc2ccccc2[nH]1` (stereo not given), the TGI was over 100 µM.
The same measure, in the same setting: with `CCOC(=O)c1cc2nc3ccccc3c(=O)n2c2ccccc12` the figure was over 10 µM.
Consider `Cc1cc(O)c(/C=N/C(=S)NCc2ccccc2)c(=O)o1`, for which the TGI is over 100 µM.
On the same count and under the same terms, with `C[Si](C)(C)C1(Sc2ccccc2)SCCCS1` the figure was over 100 µM.
Consider `Cc1cc(I)cc(CN(C)CCCN2CCCCC2)c1O`, for which the GI50 was 15.9 µM and the TGI was 31.7 µM.
The compound `CC(C)(C)OC(=O)N[C@H]1CC2(C=C(Cl)C(=O)C(Cl)=C2)OC1=O` showed a TGI of 25 µM.
In the case of `COc1cc2c3c(n(C)c(=O)c2cc1OC)-c1cc2c(cc1/C3=C\CCN)OCO2`, the GI50 is 8.76 µM and the TGI was 33.5 µM.

In a further assay the test system is SF-539 CNS. The experiment in a line: inhibition of tumour cell growth, NCI panel, 48 h.
For `COc1cc2c3c(n(C)c(=O)c2cc1OC)-c1cc2c(cc1/C3=C\CCCN)OCO2`, the GI50 is 1.65 µM and the TGI stood at 6.25 µM.
`Cc1ccc(S(=O)(=O)Nc2ccccc2C(=O)c2ccc(C)c(C)c2)cc1` yielded a TGI of over 100 µM.
On to `COc1ccc(-c2nnc(COc3ccc(NC(=O)Nc4cc(C(F)(F)F)cc(C(F)(F)F)c4)cc3F)o2)cc1`, for which the GI50 was 2.09 µM and the TGI worked out at 5.28 µM.
With `COC1=CC(=O)C(C2CC(=O)c3c(O)cc(O)cc3O2)=CC1=O` (stereo not given), the TGI turned out to be 39.5 µM.
Consider `COc1cc(/C=C/c2cc(O)c(C(C)=O)c(O)c2)cc2c1O[C@]1(C)CC[C@@H](O)C(C)(C)[C@H]1C2`, for which the GI50 is 1.32 µM and the TGI worked out at 6.2 µM.
Consider `CC(C)C(C)/C=C\C(C)C1CCC2C3=CC=C4CC(O)CCC4(C)C3CCC21C` (stereo not given), for which the TGI is over 64 µM.
On to `Cc1cc2c(cc1Cl)SC(N(N(C)C)S(=O)(=O)c1ccc(Cl)cc1)=NS2(=O)=O`, for which the GI50 was 18.2 µM and the TGI is 45.8 µM.
The matching figures for `Nc1ncnc2n[nH]c(Nc3ccc(F)cc3)c12`: 23.6 µM and over 100 µM.
Take `OC(c1nc2ccccc2[nH]1)C(O)C(O)C(O)c1nc2ccccc2[nH]1` (stereo not given): the TGI was over 100 µM.
On the same count and under the same terms, in the case of `CCOC(=O)c1cc2nc3ccccc3c(=O)n2c2ccccc12` it was over 10 µM; in that of `Cc1cc(O)c(/C=N/C(=S)NCc2ccccc2)c(=O)o1`, over 100 µM.
On the same count and under the same terms, with `C[Si](C)(C)C1(Sc2ccccc2)SCCCS1` the figure was 75.2 µM.
With `Cc1cc(I)cc(CN(C)CCCN2CCCCC2)c1O`, the GI50 is 13.7 µM and the TGI amounted to 26.9 µM.
`CC(C)(C)OC(=O)N[C@H]1CC2(C=C(Cl)C(=O)C(Cl)=C2)OC1=O`: the TGI was 45.1 µM.
`COc1cc2c3c(n(C)c(=O)c2cc1OC)-c1cc2c(cc1/C3=C\CCN)OCO2`: the GI50 is 0.215 µM and the TGI is 3.74 µM.
